According to PMC7054460 (2020):

Columns and labels:
[1] = test system: Y1 (DNA, duplex, free-base (2H) porphyrin-dU (porphyrin via rigid acetylene linker) at 5 of strand 1 and at 4 of strand 2) CGCATTATATGC/GCATATAATGCG; experiment: CD titration (porphyrin exciton coupling), Scatchard fit; conditions: Na+ 100 mM NaCl + 100 mM Na2HPO4 (assumed from Fig. 2 legend); 4 μM DNA; EtBr 40-800 μM; apparent; global intercalation; buffer not given; per base
[2] = test system: Y2 (DNA, duplex, free-base (2H) porphyrin-dU (porphyrin via rigid acetylene linker) at 10 of strand 1 and at 4 of strand 2) CGCATTATATGC/GCATATAATGCG; experiment: as above; conditions: Na+ 100 mM NaCl + 100 mM Na2HPO4 (assumed from Fig. 2 legend); 4 μM DNA; EtBr 40-800 μM; apparent; local site between adjacent porphyrins; buffer not given; per base

For `CC[n+]1c(-c2ccccc2)c2cc(N)ccc2c2ccc(N)cc21`, the “Ka (association binding constant)” value [1] was 1.43 ± 0.2 × 10^5 M^-1 and the “Ka (association binding constant)” value [2] was 3.54 ± 0.4 × 10^5 M^-1.
